# Test results: PMC9605737, “Identification of 6ω-cyclohexyl-2-(phenylamino carbonylmethylthio)pyrimidin-4(3H)-ones targeting the ZIKV NS5 RNA dependent RNA polymerase” (Frontiers in Chemistry, 2022)
# How the values were obtained:
# ZIKV RNA [1] = assay: qRT-PCR viral load in supernatant of ZIKV-infected Huh7 cells; assay type: cell-based; conditions: Zika virus, Huh-7, read-out: EC50, inhibition of ZIKV RNA replication
# Text: (§1) In order to re-verify the inhibitory effect of 4w on ZIKV at the molecular level, we used ZIKV to infect cell lines of different origins (A549, Vero, Huh7 cells) and then treated with 4w in a concentration gradient. The change of viral load in the supernatant of cells after treatment was detected by qRT-PCR method.
# (§2) Cells were infected with ZIKV SZ-WIV01 and then treated with 4w. The viral load in the supernatant was detected by Quantitative real-time polymerase chain reaction (qRT-PCR) at in different time periods after infection. Then the RNA from culture supernatant was extracted using the EasyPure ® Viral DNA/RNA Kit (TransGen Biotech, China) following the manufacturer’s instructions. Intracellular RNA extraction was according to trizol method. A one-step qRT-PCR kit RNA-direct™ Realtime PCR Master Mix (TOYOBO, Japan) and TaqMan probe were used to quantify the viral RNA produced. The primers (NS5 ZIKV 1086F: 5′-CCGCTGCCCAACACAAG-3′ and NS5 ZIKV 1086R: 3′-[…] C-5′) and probe (5′-FAM-[…]-TAMRA -3′) were used for amplification of the ZIKV NS5 region. A standard curve of the serial dilutions was used to quantify the viral RNA yield.
# (§3) The 50% effective concentration (EC50) and 50% cytotoxic concentration (CC50) of the compound were calculated according to the Reed and Muench method, inhibition rate of ZIKV RNA yield- [(1-drug treatment/positive control) × 100]. […]
# ZIKV RdRp = target: T1, ZIKV RdRp (Zika virus, UniProt A0A024B7W1); assay: In vitro ZIKV RdRp activity assay (Syto9 fluorescence); assay type: biochemical; conditions: purified ZIKV RdRp domain, poly-U/ATP, 30°C 60 min; read-out: EC50, inhibition of ZIKV RdRp activity
# T1 construct: we expressed and purified ZIKV RdRp domain; made in house; host or cells: Escherichia coli BL21 (DE3)
# Text: Through molecular docking experiments and cell thermal shift analysis, we supose that 4w may have a direct interaction with ZIKV RdRp. In order to verify whether the binding of 4w and NS5 protein is directly related to ZIKV RdRp, we expressed and purified ZIKV RdRp domain, and detected its activity according to the method described in the literature ([Qian et al., 2022]) (Figure 6A). […] Heparin is a protein chelating agent. […] Heparin was selected as the positive control drug in this experiment, and the syto9-only group was used as the negative control, the same volume of DMSO as a positive control.
# The ZIKV RdRp was expressed and purified, and the protein expression and purification method was as described before ([Xu et al., 2017]; [Sáez-Álvarez et al., 2019]). 4w was diluted with protein dialysis buffer to 1,500 nM and stored for later use. In vitro RdRp polymerase activity assay was described previously ([Qian et al., 2022]), 1,500 ng of purified RdRp protein, gradient diluted 4w and positive control drug 5 μM, 2 mg/ml Poly-U, 20mM ATP, 1M Tris-HCl, 100 mg/ml BSA, 100mM MnCl2 was added to a 96-well PCR plate. After mixing, the reaction was performed at 30°C in the dark for 60 min. […] RdRp protein activity was detected on a real-time fluorescence quantitative PCR instrument.
# [2] = MTT cytotoxicity assay in A549 cells; assay type: cell-based; conditions: human
# Method: (§4) MTT assay was used to detect the toxicity of the compound. Cells were seeded in 96-well plates and cultured overnight. Compounds with different concentrations were added and incubated for 96 h. Then, 20 μl of 5 mg/ml MTT (Sigma-Aldrich, United States) solution was added to each well and kept at 37°C for 4 h. Subsequently, 100 μl of 12% SDS-50% DMF (Sigma-Aldrich, United States) solution was added and incubated overnight at 37°C. After the crystalline formamidine was completely dissolved, the optical density (OD) value was measured using a microplate reader (BioTek, United States) with a wavelength of 570 nm and a reference wavelength of 630 nm.
# (§5) The 50% effective concentration (EC50) and 50% cytotoxic concentration (CC50) of the compound were calculated according to the Reed and Muench method, inhibition rate of ZIKV RNA yield- [(1-drug treatment/positive control) × 100]. The data and graphs were processed using GraphPad Prism8 software, expressed as mean ± standard deviation (Mean ± SD), comparison between groups using ANOVA, p < 0.05 was considered statistically significant.
# [3] = MTT cytotoxicity assay in Vero cells; assay type: cell-based, African green monkey; conditions: African green monkey, triplicate, >200 = highest soluble concentration not reaching 50% cytotoxicity
# Method: as §4, §5
# ZIKV RNA [4] = assay: qRT-PCR viral load in supernatant of ZIKV-infected Vero cells; assay type: cell-based; conditions: Zika virus, read-out: EC50, inhibition of ZIKV RNA replication
# Text: as §1, §2, §3
# ZIKV [5] = assay: Time of drug withdrawal experiment; assay type: cell-based, Zika virus; conditions: 50 μM, drug withdrawal 4–6 h after dosing, viral load after 24 h
# Method: (§6) ZIKV RdRp was a important domain in the C-terminal of ZIKV NS5, and plays a crucial role in the replication and synthesis of RNA in the life cycle of ZIKV. In order to further verify that 4w activity is related to RdRp domain inhibition, we examined the effect of 4w on the replication cycle of ZIKV using four different drug treatments and time-sharing withdrawal experiments (Figure 7A).
# The virus was added to the cells and adsorbed for 2 h at 4°C, then the unabsorbed virus was washed away with pre-cooled PBS, and 50 μM 4w was added at the same time. Withdraw the drug at 1, 2, 4, 6, 8, and 12 h after dosing. The cell supernatant was collected for viral load detection after the maintenance medium continued to culture for 24 h.
# ZIKV [6] = assay: Plaque assay, anti-ZIKV activity in Vero cells; assay type: cell-based, Zika virus
# Method: Initially, the novel acetylarylamine-S-DACOs 4a-z were tested for their cytotoxicity and anti-ZIKV activity in Vero cells by plaque formation according to previously detailed procedure ([Xu et al., 2017]).
# Vero cells were inoculated in a 12-well plate at 3 × 10^5 cells/ml and cultured overnight, the medium was discarded and cells were washed with PBS, then the ZIKV (MOI = 0.5) was added to infect at 37°C for 2 h. The cells were washed with PBS, and then a mixture of DMEM supplemented with 4% FBS and 2% low-melting agarose (Amresco, United States) was overlaid on the cells. Next, the cells were fixed with 4% paraformaldehyde for 15 min at 5d post-infection (hpi), washed twice with PBS and stained with 0.8% crystal violet for 10 min. Finally, an enzyme-linked fluorescence spot spectrometer (CTL, United States) was used for image acquisition.
# ZIKV [7] = assay: Four different methods of drug treatment (virus, co-, pre-, post-treatment); assay type: cell-based, Zika virus; conditions: viral load
# Text: as §6
# As mentioned above ([Duan et al., 2019]; [Zou et al., 2020]), according to the different life cycles of the ZIKV, four different drug treatment methods are set: virus treatment, co-treatment, pre-treatment, post-treatment. For virus treatment, the ZIKV and 4w were pre-treated in a 4°C refrigerator for 1 h, then the treated virus was added to the cells for 2 h of infection, and the virus was discarded, washed twice with PBS, and added to maintenance medium (containing 2% FBS DMEM high sugar medium), continue to culture at 37°C, 5% CO2 incubator for 3 days, collect the cell supernatant for RT-PCR and plaque experiments. For co-treatment: add 4w and ZIKV to the cells at the same time, incubate at 37°C, 5% CO2 for 2 h, then remove the virus and compounds, add maintenance medium for 3 days. Pre-treatment: Compound 4w and cells were treated at 4°C for 1 h, then 4w was removed, ZIKV was added for 2 h, remove virus and the maintenance medium was added to continue culturing for 3 days. […]
# [8] = MTT cytotoxicity assay in Huh7 cells; assay type: cell-based; conditions: human
# Method: as §4, §5
# HCV NS5B RdRp = conditions: ref Shen (2015); cited from earlier work
# T1 sequence (A0A024B7W1 2793-3423): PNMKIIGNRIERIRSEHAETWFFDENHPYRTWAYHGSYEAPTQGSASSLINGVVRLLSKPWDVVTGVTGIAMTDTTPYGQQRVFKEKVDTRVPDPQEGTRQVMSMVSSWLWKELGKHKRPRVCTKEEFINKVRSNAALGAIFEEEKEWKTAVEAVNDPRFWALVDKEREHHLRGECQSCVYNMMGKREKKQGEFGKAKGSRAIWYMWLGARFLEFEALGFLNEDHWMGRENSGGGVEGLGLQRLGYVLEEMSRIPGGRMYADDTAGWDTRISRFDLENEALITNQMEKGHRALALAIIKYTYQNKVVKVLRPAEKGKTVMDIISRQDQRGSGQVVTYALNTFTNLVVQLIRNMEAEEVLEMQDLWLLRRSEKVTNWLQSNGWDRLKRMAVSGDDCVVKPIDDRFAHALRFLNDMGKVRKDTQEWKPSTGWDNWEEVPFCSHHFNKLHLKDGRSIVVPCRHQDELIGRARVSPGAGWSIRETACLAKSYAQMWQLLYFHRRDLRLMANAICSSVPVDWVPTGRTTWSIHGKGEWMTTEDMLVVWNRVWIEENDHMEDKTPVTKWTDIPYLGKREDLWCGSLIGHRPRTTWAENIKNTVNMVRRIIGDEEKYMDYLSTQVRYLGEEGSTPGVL
smiles,measurement,setting,value
"CCc1c(C2CCCCC2)nc(SCC(=O)Nc2cc(F)cc(F)c2)[nH]c1=O [Compound 4w, 2-{[4-cyclohexyl-5-ethyl-6-oxo-1,6-dihydropyrimidin-2-yl]thio}-N-(3,5-difluorophenyl)acetamide]",EC50,ZIKV RNA [1],6.76 ± 0.52 µM
same,EC50,ZIKV RdRp,11.4 ± 0.51 µM
same,CC50 at 96 h,[2],> 200 µM
same,CC50 at 96 h,[3],> 200 µM
same,EC50,ZIKV RNA [4],6.87 ± 1.21 µM
same,effect of drug withdrawal on release of progeny virus,ZIKV [5],significantly inhibit the release of progeny virus
same,"SI (selectivity index, CC50/EC50 ratio)",ZIKV [6],>26
same,EC50,"ZIKV [6]; Zika virus, plaque assay, independently in triplicate, read-out: EC50 (anti-ZIKV activity, plaque formation)",7.65 ± 0.31 µM
same,stage of the ZIKV replication cycle acted on,ZIKV [7],mainly acts on the post-entry stage of the virus
same,CC50 at 96 h,[8],> 200 µM
same,IC50,HCV NS5B RdRp,0.102 µM
